The record followed here is patent US8445676B2, “Pyrrolotriazine kinase inhibitors” (Bristol-Myers Squibb Company, priority 2008, dated 2013).

Like-named read-outs stand apart in the source and are kept apart here.

Common to all, as to assay type: biochemical
The target in assay [1] is T1, JAK3 (Homo sapiens, UniProt P52333).
T1 sequence (P52333 1-1124): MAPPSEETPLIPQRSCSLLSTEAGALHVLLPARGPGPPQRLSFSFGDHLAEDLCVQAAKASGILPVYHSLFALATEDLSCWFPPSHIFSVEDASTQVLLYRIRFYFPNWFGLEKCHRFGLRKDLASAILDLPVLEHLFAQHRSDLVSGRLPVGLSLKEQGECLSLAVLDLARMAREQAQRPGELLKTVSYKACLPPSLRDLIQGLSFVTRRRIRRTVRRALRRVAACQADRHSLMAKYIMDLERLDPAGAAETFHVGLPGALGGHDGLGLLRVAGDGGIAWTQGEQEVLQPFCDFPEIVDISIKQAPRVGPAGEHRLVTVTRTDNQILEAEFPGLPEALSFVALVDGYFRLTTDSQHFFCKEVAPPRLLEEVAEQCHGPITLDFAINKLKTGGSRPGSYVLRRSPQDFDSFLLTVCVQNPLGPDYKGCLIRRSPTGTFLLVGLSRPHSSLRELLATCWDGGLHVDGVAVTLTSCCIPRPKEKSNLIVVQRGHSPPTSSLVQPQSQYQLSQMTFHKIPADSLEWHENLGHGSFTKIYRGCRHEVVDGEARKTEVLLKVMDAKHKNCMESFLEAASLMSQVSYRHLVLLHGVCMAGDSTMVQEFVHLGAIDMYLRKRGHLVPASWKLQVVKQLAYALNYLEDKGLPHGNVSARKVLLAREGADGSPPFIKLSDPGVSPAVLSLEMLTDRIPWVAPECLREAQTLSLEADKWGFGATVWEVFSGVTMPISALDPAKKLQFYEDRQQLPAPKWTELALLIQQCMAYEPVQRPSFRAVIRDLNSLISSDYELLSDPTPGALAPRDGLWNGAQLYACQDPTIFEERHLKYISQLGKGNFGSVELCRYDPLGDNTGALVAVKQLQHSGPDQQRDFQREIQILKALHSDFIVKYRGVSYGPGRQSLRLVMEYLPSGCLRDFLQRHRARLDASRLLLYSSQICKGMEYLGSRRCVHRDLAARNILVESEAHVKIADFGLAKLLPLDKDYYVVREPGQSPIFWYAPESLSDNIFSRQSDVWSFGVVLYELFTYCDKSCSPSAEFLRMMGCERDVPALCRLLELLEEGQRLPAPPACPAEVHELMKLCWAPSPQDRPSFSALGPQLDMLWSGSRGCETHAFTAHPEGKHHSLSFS
Briefly: JAK3 Tyrosine Kinase Assay. The following applies: prior-art compound, stated in the background; read-out: IC50 against JAK3.

Assay [2] concerns the target JAK2 (Homo sapiens, UniProt O60674). Briefly: JAK2 Tyrosine Kinase Assay. In a few lines: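 Reaction of JAK2 with fluorescent substrate run 60 min at room temperature and stopped with EDTA. Substrate and phosphorylated product separated electrophoretically on a Caliper LabChip. Compounds tested at eleven concentrations in duplicate, with IC50 from non-linear regression.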

For assay [3], the target named is T1, JAK3. In words: JAK3 Tyrosine Kinase Assay. Particulars: ATP 8 μM; JAK3 2.5 nM; 60 min room temperature. As to the method: JAK3 Tyrosine Kinase Assay
The assays were performed in V-bottom 384-well plates. […] The reaction was initiated by the combination of JAK3 with substrates and test compounds. The reaction was incubated at room temperature for 60 min. and terminated by adding 45 μl of 35 mM EDTA to each sample. The reaction mixture was analyzed on the Caliper LabChip 3000 by electrophoretic separation of the fluorescent substrate and phosphorylated product. […] The final concentration of reagents in the assays is ATP, 8 μM; JAK3 fluorescent peptide, 1.5 μM; JAK3, 2.5 nM; and DMSO, 1.6%. […] Compounds were dissolved at 10 mM in dimethylsulfoxide (DMSO) and evaluated at eleven concentrations, each in duplicate. IC50 values were derived by non-linear regression analysis.

[4] abbreviates: ATP 30 μM, JAK2 1 nM, 60 min room temperature, read-out: Jak2(IC50).

Chain of JAK2 (O60674 whole entry): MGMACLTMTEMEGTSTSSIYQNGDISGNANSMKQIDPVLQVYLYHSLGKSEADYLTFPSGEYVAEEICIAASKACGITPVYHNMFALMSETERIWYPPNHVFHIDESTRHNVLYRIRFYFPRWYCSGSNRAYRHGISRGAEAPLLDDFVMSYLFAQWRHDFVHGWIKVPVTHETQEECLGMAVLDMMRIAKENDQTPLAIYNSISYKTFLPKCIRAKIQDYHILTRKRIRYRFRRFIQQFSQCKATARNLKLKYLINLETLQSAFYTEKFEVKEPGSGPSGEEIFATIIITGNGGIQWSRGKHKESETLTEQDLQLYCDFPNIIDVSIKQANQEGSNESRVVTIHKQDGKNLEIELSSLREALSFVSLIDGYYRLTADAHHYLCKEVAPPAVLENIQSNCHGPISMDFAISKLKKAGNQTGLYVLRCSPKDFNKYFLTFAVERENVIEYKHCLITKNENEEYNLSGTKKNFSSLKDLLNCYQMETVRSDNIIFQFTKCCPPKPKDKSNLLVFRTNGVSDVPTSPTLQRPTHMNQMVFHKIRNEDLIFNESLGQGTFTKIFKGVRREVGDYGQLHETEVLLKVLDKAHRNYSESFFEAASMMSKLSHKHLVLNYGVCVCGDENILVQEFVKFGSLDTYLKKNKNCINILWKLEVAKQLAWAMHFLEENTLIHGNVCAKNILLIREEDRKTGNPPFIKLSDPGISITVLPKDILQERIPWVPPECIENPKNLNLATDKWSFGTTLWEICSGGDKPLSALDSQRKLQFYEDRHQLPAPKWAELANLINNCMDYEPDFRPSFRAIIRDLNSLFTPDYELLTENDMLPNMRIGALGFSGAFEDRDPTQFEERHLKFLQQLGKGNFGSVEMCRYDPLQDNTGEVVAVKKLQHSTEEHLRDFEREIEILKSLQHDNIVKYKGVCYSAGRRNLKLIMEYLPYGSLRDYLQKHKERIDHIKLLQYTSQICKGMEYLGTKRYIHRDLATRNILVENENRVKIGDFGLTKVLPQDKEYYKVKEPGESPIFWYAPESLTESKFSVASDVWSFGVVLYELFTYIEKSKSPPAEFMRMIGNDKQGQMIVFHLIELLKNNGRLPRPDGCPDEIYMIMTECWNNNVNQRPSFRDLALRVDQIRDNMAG

For the compound `Cc1cc(Nc2nc(N3CCNCC3)nn3cccc23)[nH]n1` [Example 74 of the publication, reference compound], the IC50 in assay [1] was 460 nM; in assay [2] (prior-art compound, stated in the background, read-out: IC50 against JAK2) it was 31 nM.
For `Cc1cc(Nc2nc(N3CCN(C(=O)[C@@H](NC(=O)OC(C)(C)C)c4ccc(F)cc4)CC3)nn3cccc23)n[nH]1` [Example 132, tert-butyl((1S)-1-(4-fluorophenyl)-2-(4-(4-((5-methyl-1H-pyrazol-3-yl)amino)pyrrolo[2,1-f][1,2,4]triazin-2-yl)-1-piperazinyl)-2-oxoethyl)carbamate], the IC50 came out at 30 nM in assay [3] and 0.971 nM in assay [2] (setting [4]).
Take `Cc1cc(Nc2nc(N3CCN(C(=O)c4ncccn4)CC3)nn3cccc23)n[nH]1` [Example 95, N-(5-methyl-1H-pyrazol-3-yl)-2-(4-(2-pyrimidinylcarbonyl)-1-piperazinyl)pyrrolo[2,1-f] [1,2,4]triazin-4-amine]: the 50% inhibitory concentration (IC50) in assay [3] amounted to 90 nM; in assay [2] (setting [4]) it was 6.65 nM.
`Cc1cc(Nc2nc(N3CCN(C(=O)c4ccccc4-c4ccccc4)CC3)nn3cccc23)n[nH]1` [Example 200, 2-(4-(2-biphenylylcarbonyl)-1-piperazinyl)-N-(5-methyl-1H-pyrazol-3-yl)pyrrolo[2,1-f][1,2,4]triazin-4-amine]: the concentration for half-maximal inhibition (IC50) was found to be 120 nM in assay [3] and 7.25 nM in assay [2] (setting [4]).
The like results for `Cc1cc(Nc2nc(N3CCN(C(=O)Cc4ccccc4C(F)(F)F)CC3)nn3cccc23)n[nH]1` [Example 10, N-(5-methyl-1H-pyrazol-3-yl)-2-(4-((2-(trifluoromethyl)phenyl)acetyl)-1-piperazinyl)pyrrolo[2,1-f][1,2,4]triazin-4-amine] were, in that order, 9.84 nM and 0.604 nM.
As for `Cc1cc(Nc2nc(N3CCN(C(=O)Cc4ccc(F)cc4F)CC3)nn3cccc23)n[nH]1` [Example 37, 2-(4-((2,4-difluorophenyl)acetyl)-1-piperazinyl)-N-(5-methyl-1H-pyrazol-3-yl)pyrrolo[2,1-f][1,2,4]triazin-4-amine], the IC50 in assay [3] was determined as 160 nM; in assay [2] (setting [4]), 7.73 nM.
Regarding `Cc1ccc(C2(C(=O)N3CCN(c4nc(Nc5cc(C)[nH]n5)c5cccn5n4)CC3)CC2)cc1` [Example 187, 2-(4-((1-(4-methylphenyl)cyclopropyl)carbonyl)-1-piperazinyl)-N-(5-methyl-1H-pyrazol-3-yl)pyrrolo[2,1-f][1,2,4]triazin-4-amine], the figures for the IC50 in assay [3] and in assay [2] (setting [4]) were 200 nM and 6.83 nM, respectively.
The like results for `Cc1cc(Nc2nc(N3CCN(C(=O)C(C)(C)NC(=O)OC(C)(C)C)CC3)nn3cccc23)n[nH]1` [Example 150, tert-butyl (1,1-dimethyl-2-(4-(4-((5-methyl-1H-pyrazol-3-yl)amino)pyrrolo[2,1-f][1,2,4]triazin-2-yl)-1-piperazinyl)-2-oxoethyl)carbamate] were, in that order, 13700 nM and 700 nM.
Turning to `CO[C@H](C(=O)N1CCN(c2nc(Nc3cc(C)[nH]n3)c3cccn3n2)CC1)c1ccccc1` [Example 90, 2-(4-((2S)-2-methoxy-2-phenylacetyl)-1-piperazinyl)-N-(5-methyl-1H-pyrazol-3-yl)pyrrolo[2,1-f] [1,2,4]triazin-4-amine], the results for the IC50 in assay [3] and in assay [2] (setting [4]) were 70 nM and 8.15 nM, respectively.
Consider `Cc1cc(Nc2nc(N3CCN(C(=O)C(C)(C)c4ccccc4)CC3)nn3cccc23)n[nH]1` [Example 7, 2-(4-(2-methyl-2-phenylpropanoyl)-1-piperazinyl)-N-(5-methyl-1H-pyrazol-3-yl)pyrrolo[2,1-f] [1,2,4]triazin-4-amine], for which the IC50 in assay [3] is 2060 nM; in assay [2] (setting [4]), 320 nM.

By IC50 is commonly meant the concentration that gives 50% inhibition.
